Assays:
Format in all cases: in vivo
Botrytis cinerea [1] = assay: Treatment of strawberries inoculated with Botrytis cinerea (Example 5); conditions: 500 ppm natamycin, 600 ppm propineb; for Number of moulded strawberries/total number of 12 strawberries / Observed antifungal activity O: 20° C., strawberries
Description: Twelve fresh, organic strawberries were used per treatment. Each strawberry was wounded with a 0.5 mm long cut and each wound was inoculated with 10 μl of a Botrytis cinerea suspension containing 1×10^5 of spores/ml. After a 3-hour incubation period at 20° C., each strawberry was dipped individually for 1 minute in a freshly prepared aqueous antifungal composition comprising either 500 ppm natamycin (DSM Food Specialties, Delft, The Netherlands), 600 ppm propineb or both. Each antifungal composition also comprised 3.2% (w/w) beeswax, 0.8% (w/w) glycerol, 0.7% (w/w) polyoxyethylene sorbitan monostearate (Tween 60), 0.1% (w/w) polyoxyethylene sorbitan monooleate (Tween 80), 0.05% (w/w) methylhydroxyethyl-cellulose (MH EC), 0.03% (w/w) anti-foaming agent, 0.02% (w/w) xanthan gum, 0.02% (w/w) citric acid, 0.01% (w/w) lactic acid and 0.01% potassium sorbate. A composition without natamycin or propineb was used as control. […] The treated strawberries were incubated in a closed box in the dark at 20° C. for 9 days.
During incubation, mould growth on the strawberries was assessed in a twofold manner: (i) the number of moulded strawberries per total of 12 strawberries was counted; and (ii) the antifungal activity (in %) of the individual and combined active ingredients was determined by calculating the reduction in mould growth observed on the strawberries treated with the antifungal composition in comparison to the mould growth on the strawberries treated with the control composition. The expected antifungal activity (E in %) of the combined antifungal composition comprising both active ingredients was calculated according to the Colby equation (Colby, 1967): […]
wherein X and Y are the observed antifungal activities (in %) of the individual active ingredients X and Y, respectively.

Penicillium italicum [2] = assay: Treatment of oranges inoculated with Penicillium italicum, natamycin/propineb (Example 6); conditions: 20° C., 500 ppm propineb
Description: (§1) Ten fresh, organic oranges were used per treatment. Each orange was soaked in a 180 ppm hypochlorite solution for 10 minutes, then rinsed thoroughly with fresh tap water and dried. The peel of each disinfected orange was wounded once using a cork borer according to the method described by de Lapeyre de Bellaire and Dubois (1987). Subsequently, each wound was inoculated with 10 μl of a Penicillium italicum suspension containing 1×10^5 of spores/ml. After incubation for 3 hours at 20° C., each wound and the orange peel area of 1 cm around the wound was treated with in total 150 μl of a freshly prepared aqueous antifungal composition comprising either 500 ppm natamycin (DSM Food Specialties, Delft, The Netherlands), 500 ppm propineb or both. Each antifungal composition also comprised 3.2% (w/w) beeswax, 0.8% (w/w) glycerol, 0.7% (w/w) polyoxyethylene sorbitan monostearate (Tween 60), 0.2% (w/w) polyoxyethylene sorbitan monooleate (Tween 80), 0.05% (w/w) methylhydroxyethyl-cellulose (MHEC), 0.03% (w/w) anti-foaming agent, 0.02% (w/w) xanthan gum, 0.02% (w/w) citric acid, 0.01% (w/w) lactic acid and 0.01% potassium sorbate. A composition without natamycin or propineb was used as control.
(§2) The treated oranges were incubated in a closed box in the dark at 20° C. and assessed on mould growth during a 17-day incubation period. The antifungal activity (in %) of the individual and combined active ingredients was determined by calculating the reduction in mould growth observed on the oranges treated with the antifungal composition in comparison to the mould growth on the oranges treated with the control composition according to the Colby method (Colby, 1967) described in Example 5.

Botrytis cinerea [3] = assay: Treatment of sweet peppers inoculated with Botrytis cinerea (Example 8); conditions: 20° C., 200 ppm propineb
Description: Ten fresh, organic sweet peppers were used per treatment. Each sweet pepper was soaked in a 180 ppm hypochlorite solution for 10 minutes, then rinsed thoroughly with fresh tap water and dried. The peel of each disinfected sweet pepper was wounded once using a cork borer according to the method described by de Lapeyre de Bellaire and Dubois (1987). Subsequently, each wound was inoculated with 10 μl of a Botrytis cinerea suspension containing 1×10^5 of spores/ml. After incubation for 3 hours at 20° C., each wound and the skin area of 0.5 cm around the wound was treated with in total 75 μl of a freshly prepared aqueous antifungal composition comprising either 200 ppm natamycin (DSM Food Specialties, Delft, The Netherlands), 200 ppm propineb or both. Each antifungal composition also comprised 3.2% (w/w) beeswax, 0.8% (w/w) glycerol, 0.7% (w/w) polyoxyethylene sorbitan monostearate (Tween 60), 0.2% (w/w) polyoxyethylene sorbitan monooleate (Tween 80), 0.05% (w/w) methylhydroxyethyl-cellulose (MHEC), 0.03% (w/w) anti-foaming agent, 0.02% (w/w) xanthan gum, 0.02% (w/w) citric acid, 0.01% (w/w) lactic acid and 0.01% potassium sorbate. A composition without natamycin or propineb was used as control.
as §2, with “sweet peppers” for “oranges”, “27-day” for “17-day”

Penicillium italicum [4] = assay: Treatment of oranges inoculated with Penicillium italicum, natamycin/ferbam (Example 7); conditions: 20° C., 600 ppm ferbam
Description: as §1, §2
The experiment was conducted as described in Example 6, except for the fact that each wounded and inoculated orange was treated with 150 μl of a freshly prepared aqueous antifungal composition comprising either 500 ppm natamycin (DSM Food Specialties, Delft, The Netherlands), 600 ppm ferbam or both. During the 17-day incubation period, the treated oranges were assessed on mould growth according to the method described in Example 6.

[5] = incubation day 10, 500 ppm natamycin
[6] = incubation day 11, 500 ppm natamycin
[7] = incubation day 12, 500 ppm natamycin
[8] = incubation day 13, 500 ppm natamycin
[9] = incubation day 14, 500 ppm natamycin
[10] = incubation day 15, 500 ppm natamycin
[11] = incubation day 17, 500 ppm natamycin
[12] = incubation day 11, 200 ppm natamycin
[13] = incubation day 12, 200 ppm natamycin
[14] = incubation day 13, 200 ppm natamycin
[15] = incubation day 15, 200 ppm natamycin
[16] = incubation day 18, 200 ppm natamycin
[17] = incubation day 24, 200 ppm natamycin
[18] = incubation days 20-22, 200 ppm natamycin
[19] = incubation days 25-27, 200 ppm natamycin
[20] = incubation day 7, 500 ppm natamycin
[21] = incubation day 8, 500 ppm natamycin
[22] = incubation day 9, 500 ppm natamycin

| Compound | Number of moulded strawberries/total number of 12 strawberries (Botrytis cinerea [1]; Day 5) | Number of moulded strawberries/total number of 12 strawberries (Botrytis cinerea [1]; Day 6-9) | Observed antifungal activity O (Botrytis cinerea [1]; incubation day 4) | Observed antifungal activity O (Botrytis cinerea [1]; incubation day 5) | Observed antifungal activity O (Botrytis cinerea [1]; incubation day 6) | Observed antifungal activity O (Botrytis cinerea [1]; incubation day 7) | Observed antifungal activity O (Botrytis cinerea [1]; incubation day 8) | Observed antifungal activity O (Botrytis cinerea [1]; incubation day 9) | Observed antifungal activity O (Penicillium italicum [2]; [5]) | Observed antifungal activity O (Penicillium italicum [2]; [6]) | Observed antifungal activity O (Penicillium italicum [2]; [7]) | Observed antifungal activity O (Penicillium italicum [2]; [8]) | Observed antifungal activity O (Penicillium italicum [2]; [9]) | Observed antifungal activity O (Penicillium italicum [2]; [10]) | Observed antifungal activity O (Penicillium italicum [2]; [11]) | Observed antifungal activity O (Botrytis cinerea [3]; [12]) | Observed antifungal activity O (Botrytis cinerea [3]; [13]) | Observed antifungal activity O (Botrytis cinerea [3]; [14]) | Observed antifungal activity O (Botrytis cinerea [3]; [15]) | Observed antifungal activity O (Botrytis cinerea [3]; [16]) | other results |
| --- | --- | --- | --- | --- | --- | --- | --- | --- | --- | --- | --- | --- | --- | --- | --- | --- | --- | --- | --- | --- | --- |
| propineb | 12/12 | 12/12 | 0% | 0% | 0% | 0% | 0% | 0% | 0% | 0% | 0% | 0% | 0% | 0% | 0% | 0% | 0% | 0% | 0% | 0% | Number of the 12 strawberries that showed mould growth (Botrytis cinerea [1]; after 5 through 9 days of incubation): 12; Observed antifungal activity O (Botrytis cinerea [3]; [17]): 0%; Observed antifungal activity O (Botrytis cinerea [3]; [18]): 0%; Observed antifungal activity O (Botrytis cinerea [3]; [19]): 0% |
| CN(C)C(=S)[S-].CN(C)C(=S)[S-].CN(C)C(=S)[S-].[Fe+3] [Ferbam, ferbam] | – | – | – | – | – | – | – | – | – | – | – | – | – | – | – | – | – | – | – | – | Observed antifungal activity O (Penicillium italicum [4]; [20]): 20%; Observed antifungal activity O (Penicillium italicum [4]; [21]): 24%; Observed antifungal activity O (Penicillium italicum [4]; [22]): 20%; Observed antifungal activity O (Penicillium italicum [4]; [5]): 7%; Observed antifungal activity O (Penicillium italicum [4]; [6]): 13%; Observed antifungal activity O (Penicillium italicum [4]; [7]): 6%; Observed antifungal activity O (Penicillium italicum [4]; [8]): 6%; Observed antifungal activity O (Penicillium italicum [4]; [9]): 6%; Observed antifungal activity O (Penicillium italicum [4]; [10]): 6%; Observed antifungal activity O (Penicillium italicum [4]; [11]): 5% |
| C[C@@H]1C/C=C/C=C/C=C/C=C/[C@H](O[C@@H]2O[C@H](C)[C@@H](O)[C@H](N)[C@@H]2O)C[C@@H]2O[C@](O)(C[C@@H](O)C[C@H]3O[C@@H]3/C=C/C(=O)O1)C[C@H](O)[C@H]2C(=O)O [Natamycin, natamycin] | 11/12 | 12/12 | 33% | 16% | 5.3% | 11% | 14% | 4.8% | 54% | 41% | 36% | 38% | 32% | 24% | 21% | 84% | 80% | 79% | 78% | 75% | Observed antifungal activity O (Penicillium italicum [4]; [20]): 89%; Observed antifungal activity O (Penicillium italicum [4]; [21]): 86%; Observed antifungal activity O (Penicillium italicum [4]; [22]): 64%; Observed antifungal activity O (Penicillium italicum [4]; [5]): 54%; Observed antifungal activity O (Penicillium italicum [4]; [6]): 41%; Observed antifungal activity O (Penicillium italicum [4]; [7]): 36%; Observed antifungal activity O (Penicillium italicum [4]; [8]): 38%; Observed antifungal activity O (Penicillium italicum [4]; [9]): 32%; Observed antifungal activity O (Penicillium italicum [4]; [10]): 24%; Observed antifungal activity O (Penicillium italicum [4]; [11]): 21%; Observed antifungal activity O (Botrytis cinerea [3]; [17]): 59%; Observed antifungal activity O (Botrytis cinerea [3]; [18]): 71%; Observed antifungal activity O (Botrytis cinerea [3]; [19]): 57% |
